Patent publication US20220289751A1, “COMPOUND HAVING KDM5 INHIBITORY ACTIVITY AND PHARMACEUTICAL USE THEREOF” (ONO PHARMACEUTICAL CO., LTD., priority 2019, published 2022)
Like-named read-outs stand apart in the source and are kept apart here.

Columns and labels:
[1] = Permeability in wild type MDCK cell lines (MDCK-WT); type: in vitro ADME; conditions: dog, MDCK, pH 7.4, apical to basal, 10 μM test compound
Procedure: (§1) Wild type MDCKII cells were seeded onto an apical chamber 3 days prior to running the assay at a density of 2.3×10^5 cells per well. The integrity of cell monolayers was evaluated by examining the permeability of lucifer yellow assay using a Spectramax Gemini XS with excitation and emission at 426 nm and 538 nm respectively. Permeation of Lucifer Yellow should be ≤10×10^−6 cm/s for the experimental data to be accepted. The cell monolayers were preincubated in transport buffer (HBSS with CaCl2 and MgCl2)+25 mM HEPES, adjust to pH 7.4) at 37° C. or more than 20 min. Transport experiment was initiated by adding test compound solution (10 μM) to the apical chamber. Samples were obtained from basal chamber at 60 min, followed by addition of ice-cold acetonitrile containing internal standard. LC-MS/MS analysis was conducted as specified below. Standard calibration samples were prepared using the same matrix and analysed in the same manner. [table] […] Papp(cm/s)=(dCB/dt)×VB/(A×CA) dCB/dt is the slope of the cumulative concentration in basal side versus time VB is the volume of the basal compartment A is the area of the membrane surface area CA is the initial concentration in apical side

[2] = biological target: T1, KDM5A protein (Homo sapiens, UniProt P29375); assay: Biochemical KDM5A inhibition assay (HTRF)
T1 construct: purchased BPS Bioscience 50110
T1 sequence (P29375 whole entry): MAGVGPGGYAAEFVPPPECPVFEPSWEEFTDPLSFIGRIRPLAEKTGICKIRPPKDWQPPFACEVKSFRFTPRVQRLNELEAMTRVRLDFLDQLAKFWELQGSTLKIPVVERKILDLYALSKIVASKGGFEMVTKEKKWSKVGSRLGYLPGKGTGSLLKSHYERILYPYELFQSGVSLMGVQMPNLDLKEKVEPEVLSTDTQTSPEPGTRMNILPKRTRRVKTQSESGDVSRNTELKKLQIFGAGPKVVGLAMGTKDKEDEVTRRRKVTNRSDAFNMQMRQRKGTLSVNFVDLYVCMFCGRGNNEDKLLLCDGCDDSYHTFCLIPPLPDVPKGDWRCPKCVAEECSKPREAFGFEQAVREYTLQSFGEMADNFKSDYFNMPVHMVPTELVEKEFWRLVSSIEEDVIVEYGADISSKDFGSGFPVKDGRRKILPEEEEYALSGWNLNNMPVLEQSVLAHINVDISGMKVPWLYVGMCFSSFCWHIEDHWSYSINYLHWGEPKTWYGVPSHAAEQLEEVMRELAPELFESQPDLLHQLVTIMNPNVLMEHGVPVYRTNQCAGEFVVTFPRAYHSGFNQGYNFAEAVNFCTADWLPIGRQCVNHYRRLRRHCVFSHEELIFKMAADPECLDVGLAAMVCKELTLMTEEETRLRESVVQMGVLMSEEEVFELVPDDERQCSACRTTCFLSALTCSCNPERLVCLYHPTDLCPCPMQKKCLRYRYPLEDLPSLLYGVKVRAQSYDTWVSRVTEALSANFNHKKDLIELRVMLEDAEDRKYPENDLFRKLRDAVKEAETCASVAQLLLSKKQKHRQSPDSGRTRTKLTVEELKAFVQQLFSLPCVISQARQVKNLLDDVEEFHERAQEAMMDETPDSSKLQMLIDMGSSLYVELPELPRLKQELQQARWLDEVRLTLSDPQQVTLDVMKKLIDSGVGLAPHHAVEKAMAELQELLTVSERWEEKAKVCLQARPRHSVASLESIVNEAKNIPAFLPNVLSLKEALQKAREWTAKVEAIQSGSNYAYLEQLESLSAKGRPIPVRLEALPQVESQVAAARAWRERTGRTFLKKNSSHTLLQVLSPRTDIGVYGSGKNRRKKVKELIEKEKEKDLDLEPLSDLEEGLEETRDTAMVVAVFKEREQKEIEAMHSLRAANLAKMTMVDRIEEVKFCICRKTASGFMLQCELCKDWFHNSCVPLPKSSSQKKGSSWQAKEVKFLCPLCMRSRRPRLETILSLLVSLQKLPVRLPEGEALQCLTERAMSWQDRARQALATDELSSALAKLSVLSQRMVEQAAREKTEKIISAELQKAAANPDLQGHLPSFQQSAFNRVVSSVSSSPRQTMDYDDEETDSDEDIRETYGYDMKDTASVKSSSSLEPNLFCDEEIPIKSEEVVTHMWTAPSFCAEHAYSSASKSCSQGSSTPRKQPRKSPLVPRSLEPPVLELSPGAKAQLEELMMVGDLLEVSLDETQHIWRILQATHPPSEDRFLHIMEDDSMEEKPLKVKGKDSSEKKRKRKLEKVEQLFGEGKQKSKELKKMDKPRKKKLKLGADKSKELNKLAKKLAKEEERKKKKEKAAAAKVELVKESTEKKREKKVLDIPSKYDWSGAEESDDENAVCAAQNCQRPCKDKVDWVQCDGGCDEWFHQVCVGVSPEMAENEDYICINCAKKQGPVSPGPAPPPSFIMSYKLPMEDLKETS
Procedure: Using 384-well white ProxiPlates (PerkinElmer), representative compounds were characterized for their inhibition of KDM5A using HTRF® technology (Cisbio Bioassays). Briefly, the test compounds, reference compounds, and DMSO control (typical compound concentration range 300 pM-10 μM, final assay concentration (FAC) of DMSO 0.5%) were added to 384-well plate by the Echo® acoustic dispensing platform (Labcyte). Three (3) μ1 of KDM5A protein (BPS Bioscience, Cat #50110)(10 or 20 nM FAC) in assay buffer (50 mM MES, 50 mM NaCl, 2 mM ascorbic acid, 0.01% v/v Tween 20, pH 6.5) was added to wells and plates were incubated for 10 minutes at room temperature. Then, 3 μl of biotin-labelled H3K4-me3 substrate (Anaspec Cat #AS-64357-1; 100 nM FAC), alpha-ketoglutaric acid ([…]) and Fe(II)SO4 (FAC 100 μM) in assay buffer was added and plates were incubated for 60 minutes at room temperature. The reaction was stopped with the addition of 6 μl of anti-H3-[…]-Eu(K) (Cisbio Bioassays Cat #61KA2KAE; 0.025 μg/ml FAC)+Streptavidin XL665 (Cisbio Bioassays Cat #610SAXLA; 0.5 μg/ml FAC) in HTRF detection buffer (Cisbio Bioassays Cat #62SDBRDD). The mixture was incubated for 90 minutes at room temperature before 340 nm excitation and measurement of dual emission at 620 nm and 665 nm. The raw data (a 665 nm and a 620 nm reading from each well) for individual assay plates were analyzed. The ratio of emissions was calculated using the following calculation: Ratio=(665 nm emission/620 nm emission)*10000. Using DMSO control (maximum response or 0% inhibition) and 1 μM reference control compound (minimum response or 100% inhibition), percentage inhibition values for each well were calculated using the median values of the minimum and maximum control wells and the following calculation: % Inhibition=(Well ratio-max control ratio)/(min control ratio-max control ratio)*100. Compound IC50 values were calculated from graphs of % inhibition plotted against compound concentration, using a four parameter curve fit.

[3] = system: Wild type MDCKII cells; assay: Permeability in wild type MDCK cell lines (MDCK-WT); type: in vitro ADME; conditions: apical to basal, 10 μM test compound, 60 min, pH 7.4
Procedure: as §1

[4] = 20 nM enzyme concentration, read-out: IC50 value
[5] = comparative compounds, read-out: permeabilities in MDCK-WT of comparative compound
[6] = comparative compounds, enzyme concentration not stated, read-out: IC50 values (μM) of comparative compound

| Structure (SMILES) | Papp A→B at 60 min, 10 μM ([1]; read-out: MDCK-WT (Papp)) | IC50 [2, 4] | further results |
| --- | --- | --- | --- |
| CC(c1ccccc1)c1cc(C(=O)N2CC3(C2)CN(C(=O)C2CC2)C3)n[nH]1 (single isomer, unassigned) [EXAMPLE 89, (6-(Cyclopropanecarbonyl)-2,6-diazaspiro[3.3]heptan-2-yl)(5-(1-phenylethyl)-1H-pyrazol-3-yl)methanone] | 9 ×10⁻⁶ cm/s |  |  |
| CC(C)c1cc(C(=O)N2CC3(C2)CN(C(=O)C2CC2)C3C)n[nH]1 (single isomer, unassigned) [EXAMPLE 92, [2-(Cyclopropanecarbonyl)-3-methyl-2,6-diazaspiro[3.3]heptan-6-yl]-(5-isopropyl-1H-pyrazol-3-yl)methanone] | 8 ×10⁻⁶ cm/s | 0.6 µM |  |
| O=C(NC1CN(C(=O)c2cc(C3CC3)[nH]n2)C1)C1CC12CC2 (single isomer, unassigned) [EXAMPLE 104, N-(1-(5-cyclopropyl-1H-pyrazole-3-carbonyl)azetidin-3-yl)spiro[2.2]pentane-1-carboxamide] | 8 ×10⁻⁶ cm/s |  |  |
| O=C(NC1CN(C(=O)c2cc(C3CC3)[nH]n2)C1)C1CC12CC2 (single isomer, unassigned) [EXAMPLE 105, N-(1-(5-cyclopropyl-1H-pyrazole-3-carbonyl)azetidin-3-yl)spiro[2.2]pentane-1-carboxamide] |  |  | MDCK-WT (Papp) [10^−6 cm/s] [3]: 6 10^−6 cm/s |
| CC(C)c1c(-c2cnn(CC3CC3)c2)[nH]c2c(C#N)cnn2c1=O [5-(1-(cyclopropylmethyl)-1H-pyrazol-4-yl)-6-isopropyl-7-oxo-4,7-dihydropyrazolo[1,5-a]pyrimidine-3-carbonitrile, reference compound] |  |  | Papp A→B at 60 min, 10 μM [1, 5]: 5.6 ×10⁻⁶ cm/s; IC50 [2, 6]: 0.005 µM |
| CC(C)c1cc(C(=O)N2CC[C@@H](NC(=O)C3CC3)C2)[nH]n1 [(R)—N-(1-(3-isopropyl-1H-pyrazole-5-carbonyl)pyrrolidin-3-yl)cyclopropane carboxamide, reference compound] |  |  | Papp A→B at 60 min, 10 μM [1, 5]: 4.9 ×10⁻⁶ cm/s; IC50 [2, 6]: 0.02 µM |
| CC(C)n1c(N2CC(c3ccccc3)C2)nn2c(-c3cnc[nH]3)cnc2c1=O [EXAMPLE 8, 7-(1H-imidazol-5-yl)-3-isopropyl-2-(3-phenylazetidin-1-yl)imidazo[2,1-f][1,2,4]triazin-4(3H)-one] | 23 ×10⁻⁶ cm/s | 0.04 µM |  |
| CC(C)n1c(-c2cnn(CC3CC3)c2)nn2c(-c3cn[nH]c3)cnc2c1=O [EXAMPLE 20, 2-(1-(Cyclopropylmethyl)-1H-pyrazol-4-yl)-3-isopropyl-7-(1H-pyrazol-4-yl)imidazo[2,1-f][1,2,4]triazin-4(3H)-one] | 25 ×10⁻⁶ cm/s | 0.04 µM |  |
| CC(C)n1c(-c2ccc3c(ccn3C)c2)nn2c(-c3cn[nH]c3)cnc2c1=O [EXAMPLE 21, 3-Isopropyl-2-(1-methyl-1H-indol-5-yl)-7-(1H-pyrazol-4-yl)imidazo[2,1-f][1,2,4]triazin-4(3H)-one] | 10 ×10⁻⁶ cm/s | 0.04 µM |  |
| CC(C)n1c(-c2cccs2)nn2c(-c3cnc[nH]3)cnc2c1=O [EXAMPLE 26, 7-(1H-Imidazol-5-yl)-3-isopropyl-2-(thiophen-2-yl)imidazo[2,1-f][1,2,4]triazin-4(3H)-one] | 20 ×10⁻⁶ cm/s | 0.2 µM |  |
| CC(C)n1c(-c2cnn(CC3CC3)c2)nc2c(C(N)=O)ccnc2c1=O [EXAMPLE 30, 2-(1-(Cyclopropylmethyl)-1H-pyrazol-4-yl)-3-isopropyl-4-oxo-3,4-dihydropyrido[3,2-d]pyrimidine-8-carboxamide] | 37 ×10⁻⁶ cm/s | 0.3 µM |  |
| CC(C)n1c(-c2ccccc2)nc2c(C(N)=O)ccnc2c1=O [EXAMPLE 31, 3-isopropyl-4-oxo-2-phenyl-3,4-dihydropyrido[3,2-d]pyrimidine-8-carboxamide] | 64 ×10⁻⁶ cm/s | 0.2 µM |  |
| O=C(c1cc(C2CCCCC2)[nH]n1)N1CC2(C1)CN(C(=O)C1CC1)C2 [EXAMPLE 73, (5-Cyclohexyl-1H-pyrazol-3-yl)(6-(cyclopropanecarbonyl)-2,6-diazaspiro[3.3]heptan-2-yl)methanone] | 16 ×10⁻⁶ cm/s |  |  |
| CC(C)c1cc(C(=O)N2C[C@@H]3[C@H](C2)[C@H]3C(=O)C2CC2)n[nH]1 [EXAMPLE 94, ((1R,5S,6r)-6-(cyclopropanecarbonyl)-3-azabicyclo[3.1.0]hexan-3-yl)(5-isopropyl-1H-pyrazol-3-yl)methanone] | 68 ×10⁻⁶ cm/s |  | IC50 ([2]; * measured at 10 nM enzyme concentration, read-out: IC50 value): 1.5 µM |
| CC(C)c1c(-c2ccccc2)[nH]n2c(C#N)cnc2c1=O [EXAMPLE 95, 7-Isopropyl-8-oxo-6-phenyl-5,8-dihydroimidazo[1,2-b]pyridazine-3-carbonitrile] | 66 ×10⁻⁶ cm/s | 0.4 µM |  |
| CC(C)c1cc(C(=O)N2CC3(C2)CN(C(=O)c2cccs2)C3)n[nH]1 [EXAMPLE 99, (5-Isopropyl-1H-pyrazol-3-yl)(6-(thiophene-2-carbonyl)-2,6-diazaspiro[3.3]heptan-2-yl)methanone] | 20 ×10⁻⁶ cm/s |  |  |
| CC(C)c1cc(C(=O)N2C[C@@H]3[C@H](C2)[C@H]3C(=O)N2CCCC2(C)C)n[nH]1 [EXAMPLE 131, (2,2-Dimethylpyrrolidin-1-yl)((1R,5S,6r)-3-(5-isopropyl-1H-pyrazole-3-carbonyl)-3-azabicyclo[3.1.0]hexan-6-yl)methanone] |  |  | MDCK-WT (Papp) [10^−6 cm/s] [3]: 20 10^−6 cm/s |
| CC(C)c1cc(C(=O)N2CC3(CON(C(=O)C(C)(C)C)C3)C2)n[nH]1 [EXAMPLE 132, 1-[2-(5-Isopropyl-1H-pyrazole-3-carbonyl)-6-oxa-2,7-diazaspiro[3.4]octan-7-yl]-2,2-dimethyl-propan-1-one] | 19 ×10⁻⁶ cm/s |  |  |
| Cc1onc([C@H]2[C@@H]3CN(C(=O)c4cc(C(C)C)[nH]n4)C[C@@H]32)c1-c1ccccc1 [EXAMPLE 134, (5-Isopropyl-1H-pyrazol-3-yl)((1R,5S,6r)-6-(5-methyl-4-phenylisoxazol-3-yl)-3-azabicyclo[3.1.0]hexan-3-yl)methanone] |  |  | MDCK-WT (Papp) [10^−6 cm/s] [3]: 24 10^−6 cm/s |
